# According to US7414068B2, “Benzopyran derivatives substituted with secondary amines including tetrazole, method for the preparation thereof and pharmaceutical compositions containing them” (Dongbu Hannong Chemical Co., Ltd., priority 2002, dated 2008):
# Columns and labels:
# isolated rat aorta = assay: Vasodilating effect on blood vessel excised from rats (methoxamine-constricted aorta); conditions: isolated rat aorta constricted with methoxamine (3 μM); read-out: Concentration for inhibition of constriction induced by methoxamine in rat arota (IC50)
# In short: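 Endothelium-denuded rat thoracic aortic rings (3 mm) in Krebs-Henseleit buffer, 37 °C, carbogen, 2 g resting tension, primed twice with 10^−5 M phenylephrine. After maximal contraction with 3×10^−6 M methoxamine, compounds added cumulatively at 1, 3, 10, 30 μM. IC50 = concentration giving 50% relaxation of maximal constriction, by linear regression.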
# cortical neuron cells [1] = assay: Protective effect on hydrogen peroxide induced neuronal cell injury; type: cell-based; conditions: hydrogen peroxide 30 μM
# [2] = system: isolated ischemic rat heart; assay: Cardioprotective effect in ischemic heart models of rats (Langendorff); conditions: 10 μM
# In short: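 Langendorff-perfused male rat hearts (Krebs-Henseleit, 85 mmHg, 37 °C) pretreated 10 min with compound or vehicle (0.04% DMSO), then 30 min global ischemia and 30 min reperfusion. Read-outs: LVDP, HR, CF, rate-pressure product, time to contracture (first 5 mmHg EDP rise), LDH release.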
# [3] = system: HUVEC (Human Umbilical Vein Endothelial Cell); assay: Inhibitory effect against HUVEC tube formation; type: cell-based; parameters: key: −: no effect; +/−: slight effect; +: medium effect; ++: strong effect
# Experimental: HUVEC (Human Umbilical Vein Endothelial Cell) were cultured, and tubulogenesis (tube formation) was induced in vascular endothelial cells by plating them onto the surface of Matrigel for several hours. The effect on tube formation of the test compounds were compared with the vehicle-treated control group, then confirmed their in-vitro anti-angiogenic effect indirectly.
# cortical neuron cells [4] = assay: Protective effect on iron-induced neuronal cell injury (LDH release); type: cell-based; conditions: FeSO4 50 μM; for protective effect on neuron cell: Inhibition (%, 30 μM compound addition): LDH reduction vs control; for IC50: LDH
# In short: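 Embryonic (day 17–18) cortical neurons cultured 7–9 days, serum lowered to 0.2%, pretreated 30 min with compound (DMSO ≤0.1%), then exposed to 50 μM FeSO4 for 24 h. LDH released to medium measured; protection expressed as LDH reduction versus vehicle control.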
# brain homogenate = assay: Inhibitory effect against lipid peroxidation by iron (MDA quantification); type: biochemical, rat; conditions: 100 μM compound, FeCl2 400 μM, 37° C. 30 min
# Experimental: The rat brain was homogenized in a Krebs buffer (15 mM HEPES, 10 mM glucose, 140 mM NaCl, 3.6 mM KCl, 1.5 mM CaCl2, 1.4 mM KH2PO4, 0.7 mM MgCl2, PH 7.4) and the supernatant separated by centrifugation at 12,000 rpm for 10 min was used for further experiments. FeCl2 was added for the final concentration to be 400 μM. Then the brain homogenate was allowed to stand at 37° C. for 30 min for the facilitation of oxidation. Each of the test compounds was added at a concentration of 100 μM. For control group, only vehicle was applied.
# Iron facilitates the oxidation of the said brain homogenate to produce malondialdehyde (MDA), lipid peroxidation product. Thus, the lipid peroxidation was determined by MDA quantification. The inhibitory effect against lipid peroxidation of the test compounds was evaluated by calculating MDA reduction rate of the test compounds compared with that of the control group.
# Typically, the MDA quantification is achieved by reacting samples with 2-thiobarbituric acid (TBA) and measuring the absorbance at 530 nm. However, this method is unsuitable to treat samples on a large scale because of a boiling step. Thus, in this experiment, N-methyl-2-phenylindole was used instead of TBA.
# [5] = Acute oral toxicity test in rats; conditions: SD, rat, in vivo, single oral dose, suspended in 0.5% methyl cellulose, read-out: lethal dose (LD50) for oral administration
# In short: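 Six-week-old SPF SD rats, two per group, received compounds orally as suspensions in 0.5% methyl cellulose. Endpoints were clinical signs, body weight, mortality, haematology, serum biochemistry and macroscopic necropsy of organs and tissues.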
# RAW 264.7 cells = assay: Inhibitory effect on NO production (LPS, Griess reagent); type: cell-based, murine; conditions: Mus musculus, RAW264.7, 24 h, Addition 30 μM, LPS 1 μg/ml, read-out: Inihibition (%) of NO production
# Experimental: Using RPMI1640 media supplemented with 10% fetal bovine serum (FBS), RAW 264.7 cells (obtained from American Type Culture Collection), a murine macrophage cell line, were cultured at 37° C. in a 5% CO2 incubator. The RAW 264.7 cells were harvested and cell density was adjusted to 5×10^5 cell/ml with a RPMI media supplemented with 0.5% FBS and plated at 5×10^4 cell/well to 96-well plate, which were then cultured for 20 hours in a CO2 incubator. After removal of the media, the cells were pre-treated for 1 hour with fresh media containing 30 μM. The test compounds were dissolved in DMSO and diluted to respective concentration in the media. In order to minimize DMSO effect on the nitric oxide formation by the RAW 264.7 cells in the walls, the media were allowed to contain DMSO at a concentration of 0.1% or less.
# After completion of one-hour pre-treatment, Lipopolysaccharide (E. coli serotype 055:B5) was added to activate the cells at a final concentration of 1 μg/ml, which were maintained for 24 hours in a CO2 incubator. As a result of the activation of RAW 264.7 cells with LPS, NO was formed. The NO release into the media was in a form of nitrite (NO2^−) and quantitatively measured using the Griess reagent. A control group was treated only with vehicle instead of test compounds.
# The inhibitory effect of the test compounds against NO production were determined as the reduction of NO quantity compared with that of the control group.
# [6] = system: Low density lipoprotein of human (human LDL); assay: Inhibitory effect against lipid peroxidation induced by copper (LDL oxidation, MDA); type: biochemical; conditions: CuSO4 10 μM, 37° C. 18 hours
# Experimental: Low density lipoprotein of human (human LDL, sigma) was dissolved in water to be final concentration of 1 mg/ml. To remove EDTA (ethylenediamine tetraacetate), the aqueous solution was dialyzed in phosphate buffer at 4° C. for 18 hours. At this dialysis, phosphate buffer was changed three times. Phosphate buffer was added to LDL (100 μg LDL protein/ml) which EDTA was removed from the aqueous solution, additionally thereto CuSO4 10 μM as oxidant was added. […] Group to which CUSO4 was not added was used as blank group. Group to which CUSO4 and vehicle were added in place of test compounds was used as control group. The mixture was incubated at 37° C. for 18 hours. EDTA […] was added to the mixture to terminate the oxidation reaction.
# As shown in example 4, Cu^2+ facilitates the oxidation reaction to produce malondialdehyde (MDA), lipid peroxidation product. The MDA quantification is achieved by reacting samples with 2-thiobarbituric acid (TBA) and measuring the absorbance at 530 nm. Also, 1,1,3,3-tetramethoxypropane purchased from sigma was used as standard materials. Inhibitory effect against lipid peroxidation of the test compounds was measured by MDA (nmol) to protein (mg). Decrease of MDA to that of control group was calculated.
# [7] = system: A7r5 (Rat thoracic aorta smooth muscle cell line, ATCC); assay: Inhibitory effect on accumulation of reactive oxygen species induced by hydrogen peroxide (DCF fluorescence); type: cell-based; conditions: hydrogen peroxide 50 μM
# Experimental: To measure reactive oxygen species, H2DCFDA (2′,7′-dichlorodihydrofluorescein diacetate, Molecular Probes, Eugene, Oreg., USA) was used. If H2DCFDA, nonpolar material is transferred through cell membrane, it is changed to H2DCF (2′,7′-dichlorodihydrofluorescein), material impermeable to membrane by intracellular esterase. H2DCF is changed to high fluorescent DCF (2′,7′-dichlorofluorescein) by low fluorescent peroxidated oxygen or hydroxyl radical. H2DCFDA solution (10 mM) dissolved in DMSO was used before the experiment. A7r5 (Rat thoracic aorta smooth muscle cell line, ATCC), as smooth muscle cell was incubated in DMEM (Dulbecco's Modified Eagle's Medium) containing 10% of FBS (fetal bovine serum). Thereafter, the cell was incubated in 48 well plate for two days, then was incubated in serum-free DMEM for 24 hours to use for experiment. Krebs-linger buffer (Krebs-Ringer (K-R), 99.01 mM NaCl, 4.69 mM KCl, 1.87 mM CaCl2, 1.2 mM MgSO4, 1.03 mM K2HPO4, 25 mM NaHCO3, 20 mM Hepes, 11.1 mM D-glucose, pH 7.4) was used for washing and process of cell monolayers. After cell monolayers media was removed, each of test compounds (0.2 ml) was pre-treated to media, then incubated at 37° C. for 15 min. Final concentration was 50 μM, hydrogen peroxide was added. The media was allowed to stand for 30 min. The said solution from media was removed. The media was washed one time. H2DCFDA 20 μM was added to the media. The media was allowed to stand for 30 min. the media was washed two times. Thereafter, oxidation of H2DCFDA was measured by Fluorescence reader (FL600, Biotech Instruments, 485 nm excitation, 530 nm emission).
molecule,measurement,setting,value
"CC1(C)Oc2ccc(C#N)cc2[C@@H](NC(=NC#N)Nc2ccc(Cl)cc2)[C@@H]1O [BMS-180448, reference compound]",IC50,isolated rat aorta,1.38 µM
same,Inhibition(%) of hydrogen peroxide induced neuronal cell injury,cortical neuron cells [1]; Addition 30 μM,−5%
same,EDP (mmHg),[2]; after 30 min global ischemia and reperfusion,16.5 mmHg
same,LDH (u/g),[2]; reperfusion LDH release,17.2 u/g
same,LVDP X HR (%),"[2]; reperfusion, % of pre-treatment DP",67.6%
same,TTC,[2]; time to contracture during global ischemia,27.8 min
"COC(OC)[C@@]1(C)Oc2ccc([N+](=O)[O-])cc2[C@H](N(Cc2nnn(C)n2)c2ccc(Cl)cc2)[C@H]1O [Example 2, (2S,3R,4S)-6-nitro-4-[N-(4-chlorophenyl)-N-(2-methyl-2H-tetrazol-5-ylmethyl)amino]-3-hydroxy-2-methyl-2-dimethoxymethyl-3,4-dihydro-2H-1-benzopyran]",Tube formation (inhibitory effect),[3]; 10 μM,+
same,Tube formation (inhibitory effect),[3]; 100 μM,++
"COC(OC)[C@@]1(C)Oc2ccc(N)cc2[C@H](N(Cc2nnn(C)n2)c2ccc(C)cc2)[C@H]1O [Example 28, (2S,3R,4S)-6-amino-4-[N-(4-methylphenyl)-N-(2-methyl-2H-tetrazol-5-ylmethyl)amino]-3-hydroxy-2-methyl-2-dimethoxymethyl-3,4-dihydro-2H-1-benzopyran]",IC50,isolated rat aorta,> 30 µM
same,"protective effect on neuron cell: Inhibition (%, 30 μM compound addition)",cortical neuron cells [4]; 24 hours,103%
same,IC50,"cortical neuron cells [4]; Cortical neurone, 24 h",4.1 µM
same,"inhibitory effect against lipid peroxidation induced by iron (%, 100 μM)",brain homogenate,83%
same,Tube formation (inhibitory effect),[3]; 10 μM,+/−
same,Tube formation (inhibitory effect),[3]; 100 μM,+
same,LD50,[5],> 2000 mg/kg
"COC(OC)[C@@]1(C)Oc2ccc([N+](=O)[O-])cc2[C@H](N(Cc2nnn(C)n2)c2ccccc2O)[C@H]1O [Example 60, (2S,3R,4S)-6-nitro-4-[N-(2-hydroxyphenyl)-N-(2-methyl-2H-tetrazol-5-ylmethyl)amino]-3-hydroxy-2-methyl-2-dimethoxymethyl-3,4-dihydro-2H-1-benzopyran]","protective effect on neuron cell: Inhibition (%, 30 μM compound addition)",cortical neuron cells [4]; 24 hours,87%
same,IC50,"cortical neuron cells [4]; Cortical neurone, 24 h",< 1 µM
same,IC50,cortical neuron cells [4]; 24 hours,0.7 µM
same,"inhibitory effect against lipid peroxidation induced by iron (%, 100 μM)",brain homogenate,85%
same,inhibition at 30 µM,RAW 264.7 cells,> 75%
same,LD50,[5],> 2000 mg/kg
CC(C)(Sc1cc(C(C)(C)C)c(O)c(C(C)(C)C)c1)Sc1cc(C(C)(C)C)c(O)c(C(C)(C)C)c1 [Probucol],Inhibitory effect(%) against lipid peroxidation induced by copper,[6]; Addition 10^−5 M,66.7%
same,Inhibitory effect(%) against lipid peroxidation induced by copper,[6]; Addition 10^−6 M,58.7%
same,Inhibitory effect(%) against lipid peroxidation induced by copper,[6]; Addition 10^−7 M,33.7%
CC(CN1c2ccccc2Sc2ccccc21)N(C)C (stereo not shown) [Promethazine],Inhibition(%) of hydrogen peroxide induced neuronal cell injury,cortical neuron cells [1]; Addition 5 μM,97%
"CCCOC(=O)c1cc(O)c(O)c(O)c1 [Propyl gallate, reference compound]",Inhibition(%) of hydrogen peroxide induced neuronal cell injury,cortical neuron cells [1]; Addition 10 μM,94%
same,Inhibitory(%) against reactive oxygen species accumulation,[7]; addition 3 μM,57%
same,Inhibitory(%) against reactive oxygen species accumulation,[7]; addition 10 μM,94%
same,Inhibitory(%) against reactive oxygen species accumulation,[7]; addition 30 μM,108%
tocopherol,Inhibitory effect(%) against lipid peroxidation induced by copper,[6]; Addition 10^−5 M,29.7%
same,Inhibitory effect(%) against lipid peroxidation induced by copper,[6]; Addition 10^−7 M,21.3%
